In ChEMBL document CHEMBL3046548, “Genetic and biochemical analysis of a laboratory-selected spirodiclofen-resistant strain of Tetranychus urticae Koch (Acari: Tetranychidae)” (2009) one finds LC50, RatioLC50 and LC90 data, which are given here for eleven compounds.

≈ marks a conversion by molar mass, not a printed value. Where a name gives a salt, the structure may show the parent alone.

Test [1] deals with Tetranychus urticae. In words: Insecticidal activity against spirodiclofen-resistant Tetranychus urticae SR-VP (two-spotted spider mite) adults in kidney bean leaf disks assessed as mortality measured after 2 days. Format: functional. Particulars: foliar, 48 h.
Test [2] deals with Tetranychus urticae. As to the kind of experiment: Insecticidal activity against spirodiclofen-susceptible Tetranychus urticae LS-VL (two-spotted spider mite) adults in kidney bean leaf disks assessed as mortality after 2 day. In kind it is functional. Particulars: foliar, 48 h.
The test system of test [3] is Tetranychus urticae. In words: Resistance ratio of LC50 for spirodiclofen-resistant Tetranychus urticae SR-VP (two-spotted spider mite) adults to LC50 for spirodiclofen-susceptible Tetranychus urticae LS-VL (two-spotted spider mite) adults. In kind it is functional.
Test [4] relates to Tetranychus urticae. As to the kind of experiment: Insecticidal activity against spirodiclofen-resistant Tetranychus urticae SR-VP (two-spotted spider mite) eggs in kidney bean leaf disks assessed as mortality measured after 1 day. In kind it is functional.
For test [5], the system named is Tetranychus urticae. As to the kind of experiment: Synergism factor, ratio of LC50 for Tetranychus urticae LS-VL (two-spotted spider mite) larvae to LC50 for Tetranychus urticae LS-VL larvae in presence of 200 mg/L GSH depleter, DEM. Format: functional.
Test [6] concerns Tetranychus urticae. In words: Resistance ratio of LC50 for Tetranychus urticae SR-VP (two-spotted spider mite) larvae reared under continuous pressure of 5000 mg/L spirodiclofen for 5 months in presence of 200 mg/L GSH depleter, DEM to LC50 for Tetranychus urticae LS-VL (two-spotted spider mite) larvae in presence of 200 mg/L GSH depleter, DEM. In kind it is functional.
The test system of test [7] is Tetranychus urticae. As to the kind of experiment: Insecticidal activity against Tetranychus urticae SR-VP (two-spotted spider mite) larvae reared under continuous pressure of 5000 mg/L spirodiclofen for 5 months assessed as mortality treated 3-4 hr after 200 mg/L GSH depleter, DEM application measured after 1 day. In kind it is functional.
Test [8] has as its system Tetranychus urticae. As to the kind of experiment: Insecticidal activity against Tetranychus urticae LS-VL (two-spotted spider mite) larvae […] assessed as mortality treated 3-4 hr after 200 mg/L GSH depleter, DEM application measured after 1 day. Format: functional.
Test [9] has as its system Tetranychus urticae. As to the kind of experiment: Synergism factor, ratio of LC50 for Tetranychus urticae SR-VP (two-spotted spider mite) larvae to LC50 for Tetranychus urticae SR-VP larvae in presence of 200 mg/L GSH depleter, DEM. In kind it is functional.
Test [10] relates to Tetranychus urticae. In words: Insecticidal activity against spirodiclofen-susceptible Tetranychus urticae LS-VL (two-spotted spider mite) larvae in kidney bean leaf disks assessed as mortality after 1 day. Format: functional. Particulars: foliar, 24 h.
Test [11] concerns Tetranychus urticae. As to the kind of experiment: Resistance ratio of LC50 for spirodiclofen-resistant Tetranychus urticae SR-VP (two-spotted spider mite) larvae to LC50 for spirodiclofen-susceptible Tetranychus urticae LS-VL (two-spotted spider mite) larvae. Format: functional.
The test system of test [12] is Tetranychus urticae. In words: Insecticidal activity against spirodiclofen-resistant Tetranychus urticae SR-VP (two-spotted spider mite) larvae in kidney bean leaf disks assessed as mortality measured after 1 day. In kind it is functional. The note with it: foliar, 24 h.
Test [13] deals with Tetranychus urticae. In words: Insecticidal activity against Tetranychus urticae LS-VL (two-spotted spider mite) larvae reared under continuous pressure of 5000 mg/L spirodiclofen for 5 months assessed as mortality treated 3-4 hr after 200 mg/L cytochrome P450 monooxygenase inhibitor, PBO application measured after 1 day.
The subject of test [14] is Tetranychus urticae. As to the kind of experiment: Insecticidal activity against Tetranychus urticae SR-VP (two-spotted spider mite) larvae reared under continuous pressure of 5000 mg/L spirodiclofen for 5 months assessed as mortality treated 3-4 hr after 200 mg/L cytochrome P450 monooxygenase inhibitor, PBO application measured after 1 day.
In test [15] the test system is Tetranychus urticae. In words: Insecticidal activity against Tetranychus urticae SR-VP (two-spotted spider mite) larvae reared under continuous pressure of 5000 mg/L spirodiclofen for 5 months assessed as mortality treated 3-4 hr after 10 mg/L esterase inhibitor, DEF application measured after 1 day. In kind it is functional.
The test system of test [16] is Tetranychus urticae. As to the kind of experiment: Resistance ratio of LC50 for Tetranychus urticae SR-VP (two-spotted spider mite) larvae reared under continuous pressure of 5000 mg/L spirodiclofen for 5 months in presence of 10 mg/L esterase inhibitor, DEF to LC50 for Tetranychus urticae LS-VL (two-spotted spider mite) larvae in presence of 10 mg/L esterase inhibitor, DEF. In kind it is functional.

The test system of test [17] is Tetranychus urticae. As to the kind of experiment: Synergism factor, ratio of LC50 for Tetranychus urticae LS-VL (two-spotted spider mite) larvae to LC50 for Tetranychus urticae LS-VL larva in presence of 10 mg/L esterase inhibitor, DEF. Format: functional.
Test [18] deals with Tetranychus urticae. As to the kind of experiment: Synergism factor, ratio of LC50 for Tetranychus urticae SR-VP (two-spotted spider mite) larvae to LC50 for Tetranychus urticae SR-VP larva in presence of 10 mg/L esterase inhibitor, DEF. In kind it is functional.
For test [19], the system named is Tetranychus urticae. As to the kind of experiment: Insecticidal activity against Tetranychus urticae LS-VL (two-spotted spider mite) larvae […] assessed as mortality treated 3-4 hr after 10 mg/L esterase inhibitor, DEF application measured after 1 day. Format: functional.
The subject of test [20] is Tetranychus urticae. As to the kind of experiment: Insecticidal activity against spirodiclofen-susceptible Tetranychus urticae LS-VL (two-spotted spider mite) eggs in kidney bean leaf disks assessed as mortality after 1 day. Format: functional. Particulars: foliar, 24 h.
In test [21] the test system is Tetranychus urticae. As to the kind of experiment: Resistance ratio of LC50 for spirodiclofen-resistant Tetranychus urticae SR-VP (two-spotted spider mite) eggs to LC50 for spirodiclofen-susceptible Tetranychus urticae LS-VL (two-spotted spider mite) eggs. In kind it is functional.
Test [22] deals with Tetranychus urticae. As to the kind of experiment: Insecticidal activity against diploid F1 progeny generated from reciprocal cross between male Tetranychus urticae LS-VL (two-spotted spider mite) with female Tetranychus urticae SR-VP in kidney bean leaf disk assessed as mortality. In kind it is functional.
In test [23] the test system is Tetranychus urticae. As to the kind of experiment: Insecticidal activity against haploid F2 progeny generated from reciprocal cross between female Tetranychus urticae LS-VL (two-spotted spider mite) with male Tetranychus urticae SR-VP in kidney bean leaf disk assessed as mortality. In kind it is functional. The note with it: foliar.
The subject of test [24] is Tetranychus urticae. In words: Insecticidal activity against spirodiclofen-resistant Tetranychus urticae SR-VP (two-spotted spider mite) larvae reared under continuous pressure of 5000 mg/L spirodiclofen for 5 months in kidney bean leaf disks assessed as mortality measured after 1 day. In kind it is functional. The note with it: foliar, 24 h.
Test [25] concerns Tetranychus urticae. In words: Insecticidal activity against spirodiclofen-resistant Tetranychus urticae SR-VP (two-spotted spider mite) larvae maintained on bean plants sprayed with 5000 mg/L spirodiclofen assessed as mortality. In kind it is functional.
The test system of test [26] is Tetranychus urticae. As to the kind of experiment: Insecticidal activity against haploid F2 progeny generated from reciprocal cross between male Tetranychus urticae LS-VL (two-spotted spider mite) with female Tetranychus urticae SR-VP in kidney bean leaf disk assessed as mortality. Format: functional. The note with it: foliar.
Test [27] concerns Tetranychus urticae. As to the kind of experiment: Insecticidal activity against spirodiclofen-resistant Tetranychus urticae SR-VP (two-spotted spider mite) larvae maintained on bean plants sprayed with 5000 mg/L spirodiclofen assessed as mortality measured at 6 months after mite transfer onto unsprayed bean plants. Format: functional.
For test [28], the system named is Tetranychus urticae. In words: Insecticidal activity against diploid F1 progeny generated from reciprocal cross between female Tetranychus urticae LS-VL (two-spotted spider mite) with male Tetranychus urticae SR-VP in kidney bean leaf disk assessed as mortality. In kind it is functional.
The test system of test [29] is Tetranychus urticae. In words: Resistance ratio of LC50 for spirodiclofen-resistant Tetranychus urticae SR-VP (two-spotted spider mite) larvae reared under continuous pressure of 5000 mg/L spirodiclofen for 5 months to LC50 for spirodiclofen-susceptible Tetranychus urticae LS-VL (two-spotted spider mite) larvae. In kind it is functional.

`CC[C@H](C)[C@H]1O[C@]2(C=C[C@@H]1C)C[C@@H]1C[C@@H](C/C=C(\C)[C@@H](O[C@H]3C[C@H](OC)[C@@H](O[C@H]4C[C@H](OC)[C@@H](O)[C@H](C)O4)[C@H](C)O3)[C@@H](C)/C=C/C=C3\CO[C@@H]4[C@H](O)C(C)=C[C@@H](C(=O)O1)[C@]34O)O2.CO[C@H]1C[C@H](O[C@H]2[C@H](C)O[C@@H](O[C@@H]3/C(C)=C/C[C@@H]4C[C@@H](C[C@]5(C=C[C@H](C)[C@@H](C(C)C)O5)O4)OC(=O)[C@@H]4C=C(C)[C@@H](O)[C@H]5OC/C(=C\C=C\[C@@H]3C)[C@]54O)C[C@@H]2OC)O[C@@H](C)[C@@H]1O` [ABAMECTIN]: the LC50 in the test with Tetranychus urticae [1] was found to be 0.52 µg/mL; in the test on Tetranychus urticae [2], 0.4 µg/mL. Also, in the test with Tetranychus urticae [3], the RatioLC50 is listed as 1.3.

Regarding `CCCCCCCCCCCCC1=C(OC(C)=O)C(=O)c2ccccc2C1=O` [ACEQUINOCYL], the results for the LC50 in the test with Tetranychus urticae [1] and with Tetranychus urticae [2] were 29.6 µg/mL (≈ 77 µM) and 7.7 µg/mL (≈ 20 µM), respectively. In addition, the RatioLC50 in the test on Tetranychus urticae [3] was found to be 3.8. Also, in the test on Tetranychus urticae [4], the LC90 came to 60 µg/mL (≈ 156 µM).

For `COc1ccc(-c2ccccc2)cc1NNC(=O)OC(C)C` [BIFENAZATE], the LC50 came to 2.4 µg/mL (≈ 7.99 µM) with Tetranychus urticae [1] and 1.2 µg/mL (≈ 4 µM) in the test on Tetranychus urticae [2]. The RatioLC50 with Tetranychus urticae [3] came to 2.

For the compound `CCOC(=O)/C=C\C(=O)OCC` [DIETHYL MALEATE], the RatioLC50 in the test with Tetranychus urticae [5] amounted to 0.7; in the test with Tetranychus urticae [6], 189; in the test on Tetranychus urticae [9] it was 1. Also, the values for the LC50 in the test on Tetranychus urticae [7] and in the test with Tetranychus urticae [8] were 1310 µg/mL and 6.9 µg/mL, respectively.

As to `CCOc1cc(C(C)(C)C)ccc1C1COC(c2c(F)cccc2F)=N1` (stereo not drawn) [ETOXAZOLE], the figures for the LC50 with Tetranychus urticae [10] and in the test on Tetranychus urticae [12] were 0.76 µg/mL (≈ 2.11 µM) and 0.61 µg/mL (≈ 1.7 µM), respectively. The RatioLC50 in the test with Tetranychus urticae [11] was found to be 0.8.

`CCCCOCCOCCOCc1cc2c(cc1CCC)OCO2` [PIPERONYL BUTOXIDE]: the LC50 is 3.9 µg/mL (≈ 11.5 µM) with Tetranychus urticae [13] and 380 µg/mL (≈ 1120 µM) in the test with Tetranychus urticae [14].

As for `CC(C)(C)c1ccc(CSc2cnn(C(C)(C)C)c(=O)c2Cl)cc1` [PYRIDABEN], the LC50 turned out to be 135 µg/mL (≈ 370 µM) in the test on Tetranychus urticae [1] and 156 µg/mL (≈ 427 µM) with Tetranychus urticae [2]. Further, the RatioLC50 with Tetranychus urticae [3] is 0.9.

With `CCCCSP(=O)(SCCCC)SCCCC` [S,S,S,-TRIBUTYLPHOSPHOROTRITHIOATE], the LC50 with Tetranychus urticae [15] stood at 402 µg/mL (≈ 1280 µM); with Tetranychus urticae [19], 6.3 µg/mL (≈ 20 µM). Also, the values for the RatioLC50 with Tetranychus urticae [16], with Tetranychus urticae [17] and in the test on Tetranychus urticae [18] were 64, 0.8 and 3.3, respectively.

As to `CCC(C)(C)C(=O)OC1=C(c2ccc(Cl)cc2Cl)C(=O)OC12CCCCC2` [SPIRODICLOFEN], the LC50 is 4.9 µg/mL (≈ 11.9 µM) with Tetranychus urticae [10]; 8.7 µg/mL (≈ 21.2 µM) with Tetranychus urticae [20]; 85 µg/mL (≈ 207 µM) in the test with Tetranychus urticae [22] (Tetranychus urticae, foliar); 56 µg/mL (≈ 136 µM) in the test with Tetranychus urticae [23]; 1340 µg/mL (≈ 3270 µM) in the test on Tetranychus urticae [24]; 10000 µg/mL (≈ 24300 µM) in the test on Tetranychus urticae [25]. In addition, the LC50 in the test on Tetranychus urticae [26] came to 44 µg/mL (≈ 107 µM); with Tetranychus urticae [4] (Tetranychus urticae, SR-VP, foliar, 24 h), 17.9 µg/mL (≈ 43.5 µM); in the test on Tetranychus urticae [27], 5930 µg/mL (≈ 14400 µM); with Tetranychus urticae [28] (Tetranychus urticae, foliar), 68 µg/mL (≈ 165 µM). The values for the RatioLC50 in the test with Tetranychus urticae [21] and in the test on Tetranychus urticae [29] were 2 and 277, respectively. For the same compound, the LC90 in the test on Tetranychus urticae [22] worked out at 236 µg/mL (≈ 574 µM); with Tetranychus urticae [28] it was 150 µg/mL (≈ 365 µM).

Regarding `Cc1cc(C)c(C2=C(OC(=O)CC(C)(C)C)C3(CCCC3)OC2=O)c(C)c1` [SPIROMESIFEN], the LC50 in the test on Tetranychus urticae [10] was 0.79 µg/mL (≈ 2.13 µM); with Tetranychus urticae [12] it was 14.5 µg/mL (≈ 39.1 µM). Besides, the RatioLC50 with Tetranychus urticae [11] was 18.

With `CCc1nn(C)c(C(=O)NCc2ccc(C(C)(C)C)cc2)c1Cl` [TEBUFENPYRAD], the LC50 came to 138 µg/mL (≈ 412 µM) in the test with Tetranychus urticae [1] and 63.5 µg/mL (≈ 190 µM) with Tetranychus urticae [2]. For the same compound, the RatioLC50 in the test with Tetranychus urticae [3] worked out at 2.2.

One may read the LC50 as the concentration that kills 50% of the test population.
